From patent publication US20130344139A1, “METHOD OF REDUCING CONTACT LENS INTOLERANCE WITH NON-DRYING ANTIHISTAMINES” (priority 2005, published 2013)

Tests used:
[1] = target: endogenous M3 receptor (1321N1) (Homo sapiens, UniProt P20309)
[2] = target: T1, human muscarinic receptor M4 (Homo sapiens, UniProt P08173); assay: Muscarinic receptor potency, C6 cells expressing recombinant M4 (chimeric Gq/i)
T1 sequence (P08173 1-479): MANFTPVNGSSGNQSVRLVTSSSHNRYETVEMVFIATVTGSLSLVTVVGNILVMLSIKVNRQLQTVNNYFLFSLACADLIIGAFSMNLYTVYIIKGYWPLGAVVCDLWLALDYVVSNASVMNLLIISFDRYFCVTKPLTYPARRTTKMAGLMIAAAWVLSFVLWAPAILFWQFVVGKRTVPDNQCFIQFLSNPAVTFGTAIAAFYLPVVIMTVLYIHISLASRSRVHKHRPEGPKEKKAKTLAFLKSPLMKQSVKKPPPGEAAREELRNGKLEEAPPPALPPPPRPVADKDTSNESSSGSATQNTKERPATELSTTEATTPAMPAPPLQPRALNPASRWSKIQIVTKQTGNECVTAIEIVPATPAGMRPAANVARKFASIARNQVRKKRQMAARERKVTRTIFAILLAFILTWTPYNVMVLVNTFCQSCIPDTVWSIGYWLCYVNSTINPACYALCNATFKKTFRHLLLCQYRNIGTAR
Description: (§1) C6 rat glioma and CHO-K1 (Chinese hamster ovary) cells were obtained from the American Type Culture Collection (ATCC, Manassas, Va.). […] Recombinant cell lines stably expressing independently each of the five human muscarinic receptors (M1, M2, M3, M4 or M5) were established by transfecting C6 rat glioma cells with the plasmid pcDNA3.1(+) containing the DNA sequence encoding the muscarinic receptor subtypes. Moreover, two of the muscarinic receptor subtypes (M2 and M4) that signal through the Gαi protein were expressed in C6 cells that also expressed a functional chimeric Gq/i protein allowing these receptors to signal via calcium mobilization.

[3] = target: human muscarinic receptor M3 (Homo sapiens, UniProt P20309); assay: Muscarinic receptor potency, C6 cells expressing recombinant M3
Chain of human muscarinic receptor M3 (P20309 whole entry): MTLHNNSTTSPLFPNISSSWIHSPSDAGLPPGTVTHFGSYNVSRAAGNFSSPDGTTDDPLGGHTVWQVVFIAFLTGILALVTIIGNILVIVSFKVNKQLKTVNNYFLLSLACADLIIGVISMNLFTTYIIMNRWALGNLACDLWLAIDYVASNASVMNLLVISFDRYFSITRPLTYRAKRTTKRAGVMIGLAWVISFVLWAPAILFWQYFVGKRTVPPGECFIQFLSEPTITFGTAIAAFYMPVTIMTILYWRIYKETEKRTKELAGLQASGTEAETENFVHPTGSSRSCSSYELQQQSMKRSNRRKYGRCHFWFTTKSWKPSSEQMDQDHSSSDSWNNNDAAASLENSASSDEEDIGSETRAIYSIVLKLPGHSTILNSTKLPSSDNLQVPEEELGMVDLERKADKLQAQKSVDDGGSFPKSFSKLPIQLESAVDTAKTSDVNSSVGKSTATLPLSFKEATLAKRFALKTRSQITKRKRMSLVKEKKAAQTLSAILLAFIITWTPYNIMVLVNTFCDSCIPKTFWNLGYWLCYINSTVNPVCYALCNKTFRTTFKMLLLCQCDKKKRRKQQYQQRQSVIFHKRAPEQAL
Description: as §1

[4] = tested on: muscarinic receptors (M1-M5); assay: Muscarinic receptor signaling, statements for M1-M5 together; conditions: for inhibition of muscarinic receptor signaling (in words): stimulation with 500 nM acetylcholine; for IC50 at muscarinic receptors (in words): lack of anticholinergic properties
Description: as §1

[5] = target: T2, human muscarinic receptor M5 (Homo sapiens, UniProt P08912); assay: Muscarinic receptor potency, C6 cells expressing recombinant M5
T2 sequence (P08912 1-532): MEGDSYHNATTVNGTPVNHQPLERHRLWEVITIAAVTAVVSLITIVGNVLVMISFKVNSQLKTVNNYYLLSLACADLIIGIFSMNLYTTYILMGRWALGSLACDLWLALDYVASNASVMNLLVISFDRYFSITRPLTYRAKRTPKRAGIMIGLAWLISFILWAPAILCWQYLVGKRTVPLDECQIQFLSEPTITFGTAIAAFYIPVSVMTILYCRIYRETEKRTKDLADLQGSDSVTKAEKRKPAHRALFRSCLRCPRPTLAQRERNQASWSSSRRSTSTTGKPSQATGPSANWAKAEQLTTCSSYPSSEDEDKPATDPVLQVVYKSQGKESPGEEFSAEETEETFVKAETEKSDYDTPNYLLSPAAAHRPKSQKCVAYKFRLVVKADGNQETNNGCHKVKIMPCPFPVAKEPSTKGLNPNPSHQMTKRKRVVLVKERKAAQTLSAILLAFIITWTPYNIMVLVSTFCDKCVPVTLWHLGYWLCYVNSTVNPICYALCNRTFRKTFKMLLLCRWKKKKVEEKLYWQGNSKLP
Description: as §1

[6] = target: human histamine H1 receptor (Homo sapiens, UniProt P35367); assay: H1 receptor potency: inhibition of histamine stimulation in CHO-K1 H1 cells
Chain of human histamine H1 receptor (P35367 whole entry): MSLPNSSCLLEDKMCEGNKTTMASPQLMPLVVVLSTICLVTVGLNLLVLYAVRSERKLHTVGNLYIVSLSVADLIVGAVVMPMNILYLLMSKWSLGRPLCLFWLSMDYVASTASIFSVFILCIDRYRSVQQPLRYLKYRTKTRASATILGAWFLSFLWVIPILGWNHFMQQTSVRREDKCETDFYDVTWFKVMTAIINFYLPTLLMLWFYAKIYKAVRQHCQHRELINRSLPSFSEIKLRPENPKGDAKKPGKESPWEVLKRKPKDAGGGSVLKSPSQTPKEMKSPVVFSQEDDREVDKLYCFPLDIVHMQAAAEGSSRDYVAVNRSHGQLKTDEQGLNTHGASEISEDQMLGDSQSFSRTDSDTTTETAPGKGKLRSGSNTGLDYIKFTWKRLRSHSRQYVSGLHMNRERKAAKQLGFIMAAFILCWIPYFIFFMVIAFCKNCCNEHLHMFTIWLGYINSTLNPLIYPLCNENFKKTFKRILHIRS
Description: as §1
Dose response curves were generated.

healthy individuals = conditions: systemic antihistamines; increased corneal and conjunctival staining, decreased TFBUT, increased ocular discomfort; cited from earlier work
allergic conjunctivitis = conditions: in vivo; cited from earlier work
C57BL6 mice = assay: Effect of topical epinastine and olopatadine on tear volume in mice (phenol red cotton thread); format: in vivo, mouse; conditions: for tear volume compared with untreated group: olopatadine: 15 min and 45 min (P<0.05); for overall effect on tear volume / tear secretion (conclusion): topical, mice
Procedure: After two and four days of treatment, tear volume measurements were made with a phenol red impregnated cotton thread (Zone-Quick, Menicon, San Mateo, Calif.) 15, 45, 90, 120 and 240 min after the last instillation of the drug. A baseline tear measurement was performed before initiation of drug therapy. The untreated group had tear volume measurements done at the same time points. The length of tear wetting on the cotton thread was measured with a Nikon SMZ1500 microscope using MetaVue© software. A standard curve of cotton thread uptake was made using a glass micropipette with a known volume of a basic solution. Mouse tear volumes were calculated using regression analysis calculated by Microsoft® Excel. ANOVA with Tukey's Multiple Comparison Test was used for statistical analysis using GraphPad Prism® software.

[7] = tested on: contact lens-wearing subjects; assay: Effect of topical epinastine on contact lens-wearing, contact lens intolerant subjects; format: in vivo
Description: This was a multi-center, open-label, randomized study that compared (a) epinastine 0.05% ophthalmic solution (ELESTAT®, Inspire Pharmaceuticals, Inc., Durham, N.C.) plus rewetting drops (Walgreens Rewetting Drops, Walgreens, Deerfield Ill.) with (b) rewetting drops alone. The subjects wore contact lenses, but were contact lens intolerant. The study started during the spring allergy season because seasonal allergic conjunctivitis may exacerbate the symptoms of contact lens intolerance.
146 subjects had 3 clinic visits over a 2-week period. The first was the screening visit to determine eligibility. Following that, subjects completed a daily diary card to assess compliance and capture baseline values during a 5-7 day run-in period with rewetting drops. At the next visit, each subject was dispensed a new pair of contact lenses and randomly assigned to receive either (a) epinastine 0.05% ophthalmic solution BID (twice a day) plus rewetting drops (75 subjects), or (b) rewetting drops only as needed, but at least twice a day (71 subjects), for a 5-7 day treatment period. During the treatment period, subjects recorded the length of time that contact lens wear was comfortable, the total time of wear, ocular itch, overall ocular comfort, and use of rewetting drops. Subjects receiving epinastine were instructed to remove contact lenses prior to instillation, allow at least 10 minutes before reinsertion, and allow 15 minutes before administering rewetting drops. Each instillation was to occur 8-12 hours after the previous one, with the evening application coming after removal of lenses for the day. The final visit came after the 5-7 day treatment period and allowed collection of the data and unused study medication.
Ocular comfort was scored on a scale of 0-4, with 0=very comfortable, 1=somewhat comfortable, 2=mildly uncomfortable, 3=moderately uncomfortable, and 4=very uncomfortable.
Ocular itch was scored on a scale of 0-4, with 0=none, 1=mild, 2=moderate, 3=severe, and 4=extremely severe.
Baseline values presented are the average of all entries recorded during the run-in phase of the study. P values are based on an ANCOVA model that included the treatment, the site, and the baseline value. Values for Day 1 are not included in the analysis for contact lens wear time, ocular itching, ocular comfort, and rewetting drop usage because they were a mixture of run-in and treatment period values.

[8] = target: T3, human muscarinic receptor M2 (Homo sapiens, UniProt P08172); assay: Muscarinic receptor potency, C6 cells expressing recombinant M2 (chimeric Gq/i)
T3 sequence (P08172 1-466): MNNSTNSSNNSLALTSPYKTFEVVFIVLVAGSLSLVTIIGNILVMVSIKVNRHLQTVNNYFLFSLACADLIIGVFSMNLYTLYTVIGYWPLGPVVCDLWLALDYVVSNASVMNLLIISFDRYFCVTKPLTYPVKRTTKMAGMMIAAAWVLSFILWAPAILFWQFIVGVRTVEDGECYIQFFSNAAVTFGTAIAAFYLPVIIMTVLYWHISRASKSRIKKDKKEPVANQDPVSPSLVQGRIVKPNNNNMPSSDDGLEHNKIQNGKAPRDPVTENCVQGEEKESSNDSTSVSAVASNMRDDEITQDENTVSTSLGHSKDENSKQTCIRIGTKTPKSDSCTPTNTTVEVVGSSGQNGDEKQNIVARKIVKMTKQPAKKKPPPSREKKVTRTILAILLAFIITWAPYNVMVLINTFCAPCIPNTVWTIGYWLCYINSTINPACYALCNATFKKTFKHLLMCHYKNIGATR
Description: as §1

human subjects = assay: Ocular drying effect of topical epinastine and systemic loratadine, crossover study (fluorophotometry, staining, TFBUT); conditions: after 4 days of treatment
[9] = target: T4, human muscarinic receptor M1 (Homo sapiens, UniProt P11229); assay: cell-based
T4 sequence (P11229 1-460): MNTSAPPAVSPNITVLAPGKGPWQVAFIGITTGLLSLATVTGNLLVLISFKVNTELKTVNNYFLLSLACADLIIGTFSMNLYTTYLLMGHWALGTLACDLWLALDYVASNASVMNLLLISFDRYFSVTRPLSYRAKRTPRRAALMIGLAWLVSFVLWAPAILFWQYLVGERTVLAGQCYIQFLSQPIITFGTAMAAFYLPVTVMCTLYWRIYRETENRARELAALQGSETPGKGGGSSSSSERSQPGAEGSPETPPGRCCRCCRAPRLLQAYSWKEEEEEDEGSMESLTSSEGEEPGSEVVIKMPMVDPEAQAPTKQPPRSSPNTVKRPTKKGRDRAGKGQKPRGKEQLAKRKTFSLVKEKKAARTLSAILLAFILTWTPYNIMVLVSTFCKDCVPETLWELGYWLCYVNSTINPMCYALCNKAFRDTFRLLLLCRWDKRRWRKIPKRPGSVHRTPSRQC
Description: as §1

[10] = average during treatment period

Chain of endogenous M3 receptor (1321N1) (P20309 whole entry): as the sequence (P20309 whole entry) above

For `CN1CCCC(n2nc(Cc3ccc(Cl)cc3)c3ccccc3c2=O)CC1` (stereo not shown) [azelastine], the IC50 [1] was 10.2 µM, the IC50 [2] was 8.11 µM and the IC50 [3] was 16.8 µM. The “inhibition of muscarinic receptor signaling (in words)” value [4] was “inhibited muscarinic receptor signaling in a dose-dependent manner” and the IC50 [5] was 3.26 µM.

For `CCOCCn1c(C2CCN(CCc3ccc(C(C)(C)C(=O)O)cc3)CC2)nc2ccccc21` [bilastine], the “IC50 at muscarinic receptors (in words)” value [4] was “could not be calculated” and the IC50 [6] was 0.165 ± 0.044 µM.

For `O=C(O)COCCN1CCN(C(c2ccccc2)c2ccc(Cl)cc2)CC1` (stereo not shown) [cetirizine], the “signs and symptoms associated with ocular dryness” value (healthy individuals) is listed as “induced signs and symptoms associated with ocular dryness” and the “IC50 at muscarinic receptors (in words)” value [4] is listed as “could not be calculated”.

In the case of `NC1=NCC2c3ccccc3Cc3ccccc3N12` (stereo not shown) [epinastine, 3-amino-9,13b-dihydro-1H-dibenz[c,f]-imidazo[5,1-a]azepine], the “redness and itching associated with allergic conjunctivitis” value (allergic conjunctivitis) is listed as “reduces redness and itching”, the “mean tear volume compared with olopatadine-treated group” value (C57BL6 mice; after 2 days of treatment, 1 μL twice a day on ocular surface, 15, 45, 90 and 240 minutes, significant at 45 min (P<0.001)) is listed as “higher mean tear volumes” and the “tear volume compared with untreated group” value (C57BL6 mice; after 2 days of treatment) is listed as “increased production of tears over the untreated group, but the difference was not statistically significant”. For the same compound, the “tear volume compared with olopatadine” value (C57BL6 mice; after 4 days of treatment, significant at 45 min (p<0.05)) was “volumes were higher at all time points”, the “overall effect on tear volume / tear secretion (conclusion)” value (C57BL6 mice) was “not found to inhibit tear secretion, but rather increased tear production” and the “IC50 at muscarinic receptors (in words)” value [4] was “could not be calculated”. The IC50 [6] was 0.019 ± 0.003 µM, the “Frequency of rewetting drop use, mean change from baseline” value [7, 10] was −0.55 and the “Total contact lens wear, mean change from baseline” value [7, 10] was 0.35 h. For the same compound, the “Comfortable contact lens wear, mean change from baseline” value ([7]; average during treatment period (5-7 days)) was 1.33 h, the “average use of rewetting drops over the entire treatment period” value ([7]; in vivo) was 2.79 uses per day and the “mean overall eye comfort over the entire treatment period” value ([7]; score 0-4 (0=very comfortable, 4=very uncomfortable)) was 1.43. The “Overall eye comfort, mean change from baseline” value ([7]; score 0-4 (0=very comfortable, 4=very uncomfortable), average during treatment period) was −0.48, the “average ocular itch score over the entire treatment period” value ([7]; score on a scale of 0-4) was 1.11 and the “Ocular itch, mean change from baseline” value ([7]; score on a scale of 0-4, average during treatment period) was −0.54. For the same compound, the “average total wearing time over the treatment period” value ([7]; treatment period 5-7 days) was 13.22 h and the “comfortable wear time averaged over the treatment period” value ([7]; treatment period 5-7 days) was 9.21 h.

`CN1CCC(=C2c3ccccc3CC(=O)c3sccc32)CC1` [ketotifen] gave an IC50 [2] of 0.561 µM, an IC50 [8] of 0.209 µM and an IC50 [5] of 0.138 µM.

For `CCOC(=O)N1CCC(=C2c3ccc(Cl)cc3CCc3cccnc32)CC1` [loratadine], the “corneal and conjunctival staining, increase” value (human subjects) was 22%, the “mean TFBUT (tear film break-up time), decrease” value (human subjects) was 22% and the “tear flow, decrease” value (human subjects) was 35%. The “tear volume, decrease” value (human subjects) was 34% and the “signs and symptoms associated with ocular dryness” value (healthy individuals) was “induced signs and symptoms associated with ocular dryness”.

With `CN(C)CC/C=C1/c2ccccc2COc2ccc(CC(=O)O)cc21` [olopatadine] the IC50 [9] was 1.74 µM, the IC50 [1] was 41.9 µM and the IC50 [2] was 13.1 µM. For the same compound, the IC50 [8] was 7.67 µM, the IC50 [3] was 7.98 µM and the “tear volume compared with untreated group” value (C57BL6 mice; after 2 days of treatment) was “untreated group also had a statistically higher tear volume than the olopatadine group”. The “overall effect on tear volume / tear secretion (conclusion)” value (C57BL6 mice) was “significant decrease in tear volume”, the “inhibition of muscarinic receptor signaling (in words)” value [4] was “inhibited muscarinic receptor signaling in a dose-dependent manner” and the IC50 [5] was 10.7 µM.
